Our source for the IC50 values is patent US9771369B2, “Compounds and methods for kinase modulation, and indications therefor” (Plexxikon Inc., priority 2014, dated 2017).

This experiment concerns the target c-kit mutant D816V (Homo sapiens (Human), UniProt P10721, D816V/DEL694-753). As to the kind of experiment: c-Kit mutant D816V biochemical assay (AlphaScreen kinase activity). The method in brief:
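AlphaScreen with streptavidin donor and PY30 acceptor beads read phosphotyrosine on biotin-(E4Y)10 substrate (30 nM). Enzyme: E. coli-expressed N-His c-Kit D816V, residues 551-934 lacking kinase insert 694-753. Reaction 30 min at room temperature, 10 μM ATP, 5% DMSO; IC50 fitted over 8 three-fold dilutions.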

Sequence of c-kit mutant D816V (P10721 other isoform, or with tags, fused parts or gaps D816V/del 694-753): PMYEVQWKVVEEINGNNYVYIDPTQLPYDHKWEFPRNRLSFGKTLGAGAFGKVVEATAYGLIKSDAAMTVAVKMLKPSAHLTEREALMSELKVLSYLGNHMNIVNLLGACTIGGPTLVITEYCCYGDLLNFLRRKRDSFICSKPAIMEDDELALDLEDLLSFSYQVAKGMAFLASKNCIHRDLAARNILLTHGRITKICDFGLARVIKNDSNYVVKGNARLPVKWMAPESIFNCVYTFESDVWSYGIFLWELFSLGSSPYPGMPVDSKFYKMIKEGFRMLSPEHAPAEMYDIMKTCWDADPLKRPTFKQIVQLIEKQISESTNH

Regarding `COc1cc(-c2cc3c(N4CCC(c5nc(C)c(-c6cccc(OC(F)(F)F)c6)[nH]5)CC4)ncnc3[nH]2)ccn1` [P-3014, 6-(2-methoxy-4-pyridyl)-4-[4-[4-methyl-5-[3-(trifluoromethoxy)phenyl]-1H-imidazol-2-yl]-1-piperidyl]-7H-pyrrolo[2,3-d]pyrimidine], the IC50 lay within 0.0001 to 1 µM.

In turn, `COc1ccc(-c2[nH]c(C3CCN(c4ncnc5[nH]c(-c6ccc(C#N)cc6)cc45)CC3)nc2C)cc1` [P-3015, 4-[4-[4-[5-(4-methoxyphenyl)-4-methyl-1H-imidazol-2-yl]-1-piperidyl]-7H-pyrrolo[2,3-d]pyrimidin-6-yl]benzonitrile] yielded an IC50 of 0.0001 to 1 µM.

Regarding `Cc1nc(C2CCN(c3ncnc4[nH]c(-c5ccc(C#N)cc5)cc34)CC2)[nH]c1-c1cccc(F)c1` [P-3016, 4-[4-[4-[5-(3-fluorophenyl)-4-methyl-1H-imidazol-2-yl]-1-piperidyl]-7H-pyrrolo[2,3-d]pyrimidin-6-yl]benzonitrile], the IC50 is 0.0001 to 1 µM. The result for `COc1ccc(-c2[nH]c(C3CCN(c4ncnc5[nH]c(-c6ccnc(OC)c6)cc45)CC3)nc2C)cc1` [P-3017, 4-[4-[5-(4-methoxyphenyl)-4-methyl-1H-imidazol-2-yl]-1-piperidyl]-6-(2-methoxy-4-pyridyl)-7H-pyrrolo[2,3-d]pyrimidine] reads 0.0001 to 1 µM.

On to `COc1ccc(-c2[nH]c(C3CCN(c4ncnc5[nH]c(-c6ccc(C#N)cc6)cc45)CC3)nc2C)cc1F` [P-3018, 4-[4-[4-[5-(3-fluoro-4-methoxy-phenyl)-4-methyl-1H-imidazol-2-yl]-1-piperidyl]-7H-pyrrolo[2,3-d]pyrimidin-6-yl]benzonitrile], for which the IC50 is 0.0001 to 1 µM.

In turn, `CCOc1ccc(-c2[nH]c(C3(C)CCN(c4ncnc5[nH]c(-c6ccc(OC)nc6)cc45)CC3)nc2C)cc1` [P-3171, 4-[4-[5-(4-ethoxyphenyl)-4-methyl-1H-imidazol-2-yl]-4-methyl-1-piperidyl]-6-(6-methoxy-3-pyridyl)-7H-pyrrolo[2,3-d]pyrimidine] had an IC50 of 0.0001 to 1 µM. The result for `COc1ccc(-c2[nH]c(C3(C)CCN(c4ncnc5[nH]c(-c6ccc(C#N)cc6)cc45)CC3)nc2C)cn1` [P-3172, 4-[4-[4-[5-(6-methoxy-3-pyridyl)-4-methyl-1H-imidazol-2-yl]-4-methyl-1-piperidyl]-7H-pyrrolo[2,3-d]pyrimidin-6-yl]benzonitrile] reads 0.0001 to 1 µM. The result for `COc1ncc(-c2[nH]c(C3CCN(c4ncnc5[nH]c(-c6ccc(C#N)cc6)cc45)CC3)nc2C)cc1F` [P-3173, 4-[4-[4-[5-(5-fluoro-6-methoxy-3-pyridyl)-4-methyl-1H-imidazol-2-yl]-1-piperidyl]-7H-pyrrolo[2,3-d]pyrimidin-6-yl]benzonitrile] reads 0.0001 to 1 µM. The result for `Cc1nc(C2(C)CCN(c3ncnc4[nH]c(-c5cnn(C(F)F)c5)cc34)CC2)[nH]c1-c1ccc(Cl)cc1` [P-3175, 4-[4-[5-(4-chlorophenyl)-4-methyl-1H-imidazol-2-yl]-4-methyl-1-piperidyl]-6-[1-(difluoromethyl)pyrazol-4-yl]-7H-pyrrolo[2,3-d]pyrimidine] reads 0.0001 to 1 µM. For `COc1ccc(-c2cc3c(N4CCC(C)(c5nc(C)c(-c6ccc(Cl)cc6)[nH]5)CC4)ncnc3[nH]2)cn1` [P-3176, 4-[4-[5-(4-chlorophenyl)-4-methyl-1H-imidazol-2-yl]-4-methyl-1-piperidyl]-6-(6-methoxy-3-pyridyl)-7H-pyrrolo[2,3-d]pyrimidine], the IC50 is 0.0001 to 1 µM.

As for `Cc1nc(C2(C)CCN(c3ncnc4[nH]c(-c5ccc(C#N)cc5)cc34)CC2)[nH]c1-c1ccc(C(F)(F)F)cc1` [P-3177, 4-[4-[4-methyl-4-[4-methyl-5-[4-(trifluoromethyl)phenyl]-1H-imidazol-2-yl]-1-piperidyl]-7H-pyrrolo[2,3-d]pyrimidin-6-yl]benzonitrile], the IC50 was 0.0001 to 1 µM.

The compound `COc1ccc(-c2cc3c(N4CCC(C)(c5nc(C)c(-c6ccc(C(F)(F)F)cc6)[nH]5)CC4)ncnc3[nH]2)cn1` [P-3178, 6-(6-methoxy-3-pyridyl)-4-[4-methyl-4-[4-methyl-5-[4-(trifluoromethyl)phenyl]-1H-imidazol-2-yl]-1-piperidyl]-7H-pyrrolo[2,3-d]pyrimidine] registered an IC50 of 0.0001 to 1 µM. `Cc1nc(C2(C)CCN(c3ncnc4[nH]c(-c5cnn(C(F)F)c5)cc34)CC2)[nH]c1-c1ccc(C(F)(F)F)cc1` [P-3179, 6-[1-(difluoromethyl)pyrazol-4-yl]-4-[4-methyl-4-[4-methyl-5-[4-(trifluoromethyl)phenyl]-1H-imidazol-2-yl]-1-piperidyl]-7H-pyrrolo[2,3-d]pyrimidine] displayed an IC50 of 0.0001 to 1 µM. The result for `Cc1nc(C2(C)CCN(c3ncnc4[nH]c(-c5ccc(C#N)cc5)cc34)CC2)[nH]c1-c1ccc(Cl)cc1` [P-3180, 4-[4-[4-[5-(4-chlorophenyl)-4-methyl-1H-imidazol-2-yl]-4-methyl-1-piperidyl]-7H-pyrrolo[2,3-d]pyrimidin-6-yl]benzonitrile] reads 0.0001 to 1 µM; that for `COc1ncc(-c2[nH]c(C3(C)CCN(c4ncnc5[nH]c(-c6ccc(C#N)cc6)cc45)CC3)nc2C)cc1F` [P-3181, 4-[4-[4-[5-(5-fluoro-6-methoxy-3-pyridyl)-4-methyl-1H-imidazol-2-yl]-4-methyl-1-piperidyl]-7H-pyrrolo[2,3-d]pyrimidin-6-yl]benzonitrile], 0.0001 to 1 µM.

For the compound `COc1ccc(-c2[nH]c(C3(C)CCN(c4ncnc5[nH]c(-c6cnn(C(F)F)c6)cc45)CC3)nc2C)cn1` [P-3182, 6-[1-(difluoromethyl)pyrazol-4-yl]-4-[4-[5-(6-methoxy-3-pyridyl)-4-methyl-1H-imidazol-2-yl]-4-methyl-1-piperidyl]-7H-pyrrolo[2,3-d]pyrimidine], the IC50 is 0.0001 to 1 µM. Regarding `COc1ccc(-c2[nH]c(C3(C)CCN(c4ncnc5[nH]c(C)cc45)CC3)nc2C)cc1F` [P-3183, 4-[4-[5-(3-fluoro-4-methoxy-phenyl)-4-methyl-1H-imidazol-2-yl]-4-methyl-1-piperidyl]-6-methyl-7H-pyrrolo[2,3-d]pyrimidine], the IC50 lay within 0.0001 to 1 µM. The result for `Cc1cc2c(N3CCC(C)(c4nc(C)c(-c5ccc(C(F)F)cc5)[nH]4)CC3)ncnc2[nH]1` [P-3184, 4-[4-[5-[4-(difluoromethyl)phenyl]-4-methyl-1H-imidazol-2-yl]-4-methyl-1-piperidyl]-6-methyl-7H-pyrrolo[2,3-d]pyrimidine] reads 0.0001 to 1 µM. The result for `COc1ncc(-c2nc(C3(C)CCN(c4ncnc5[nH]c(C)cc45)CC3)[nH]c2C)cc1F` [P-3185, 4-[4-[4-(5-fluoro-6-methoxy-3-pyridyl)-5-methyl-1H-imidazol-2-yl]-4-methyl-1-piperidyl]-6-methyl-7H-pyrrolo[2,3-d]pyrimidine] reads 0.0001 to 1 µM. For `COc1ccc(-c2nc(C3(C)CCN(c4ncnc5[nH]c(C)cc45)CC3)[nH]c2C)cn1` [P-3186, 4-[4-[4-(6-methoxy-3-pyridyl)-5-methyl-1H-imidazol-2-yl]-4-methyl-1-piperidyl]-6-methyl-7H-pyrrolo[2,3-d]pyrimidine] the value was 0.0001 to 1 µM; for `COc1ccc(-c2[nH]c(C3(C)CCN(c4ncnc5[nH]c(-c6cnn(C(F)F)c6)cc45)CC3)nc2C)cc1F` [P-3187, 6-[1-(difluoromethyl)pyrazol-4-yl]-4-[4-[5-(3-fluoro-4-methoxy-phenyl)-4-methyl-1H-imidazol-2-yl]-4-methyl-1-piperidyl]-7H-pyrrolo[2,3-d]pyrimidine], 0.0001 to 1 µM. As for `COc1ccc(-c2cc3c(N4CCC(C)(c5nc(C)c(-c6ccc(OC)c(F)c6)[nH]5)CC4)ncnc3[nH]2)cn1` [P-3188, 4-[4-[5-(3-fluoro-4-methoxy-phenyl)-4-methyl-1H-imidazol-2-yl]-4-methyl-1-piperidyl]-6-(6-methoxy-3-pyridyl)-7H-pyrrolo[2,3-d]pyrimidine], the IC50 was in the range of 0.0001 to 1 µM.

In turn, `Cc1nc(C2(C)CCN(c3ncnc4[nH]c(-c5cnn(C(F)F)c5)cc34)CC2)[nH]c1-c1ccc(C(F)F)cc1` [P-3189, 4-[4-[5-[4-(difluoromethyl)phenyl]-4-methyl-1H-imidazol-2-yl]-4-methyl-1-piperidyl]-6-[1-(difluoromethyl)pyrazol-4-yl]-7H-pyrrolo[2,3-d]pyrimidine] displayed an IC50 of 0.0001 to 1 µM. For `COc1ccc(-c2cc3c(N4CCC(C)(c5nc(C)c(-c6ccc(C(F)F)cc6)[nH]5)CC4)ncnc3[nH]2)cn1` [P-3190, 4-[4-[5-[4-(difluoromethyl)phenyl]-4-methyl-1H-imidazol-2-yl]-4-methyl-1-piperidyl]-6-(6-methoxy-3-pyridyl)-7H-pyrrolo[2,3-d]pyrimidine] the value was 0.0001 to 1 µM; for `Cc1cc2c(N3CCC(C)(c4nc(C)c(-c5cccc(OC(F)F)c5)[nH]4)CC3)ncnc2[nH]1` [P-3191, 4-[4-[5-[3-(difluoromethoxy)phenyl]-4-methyl-1H-imidazol-2-yl]-4-methyl-1-piperidyl]-6-methyl-7H-pyrrolo[2,3-d]pyrimidine], 0.0001 to 1 µM.

The compound `Cc1nc(C2(C)CCN(c3ncnc4[nH]c(-c5cnn(C(F)F)c5)cc34)CC2)[nH]c1-c1cccc(OC(F)F)c1` [P-3192, 4-[4-[5-[3-(difluoromethoxy)phenyl]-4-methyl-1H-imidazol-2-yl]-4-methyl-1-piperidyl]-6-[1-(difluoromethyl)pyrazol-4-yl]-7H-pyrrolo[2,3-d]pyrimidine] registered an IC50 of 0.0001 to 1 µM. The result for `COc1ccc(-c2cc3c(N4CCC(C)(c5nc(C)c(-c6cccc(OC(F)F)c6)[nH]5)CC4)ncnc3[nH]2)cn1` [P-3193, 4-[4-[5-[3-(difluoromethoxy)phenyl]-4-methyl-1H-imidazol-2-yl]-4-methyl-1-piperidyl]-6-(6-methoxy-3-pyridyl)-7H-pyrrolo[2,3-d]pyrimidine] reads 0.0001 to 1 µM. For `Cc1nc(C2(C)CCN(c3ncnc4[nH]c(-c5ccc(C#N)cc5)cc34)CC2)[nH]c1-c1cccc(OC(F)F)c1` [P-3194, 4-[4-[4-[5-[3-(difluoromethoxy)phenyl]-4-methyl-1H-imidazol-2-yl]-4-methyl-1-piperidyl]-7H-pyrrolo[2,3-d]pyrimidin-6-yl]benzonitrile] the value was 0.0001 to 1 µM.
